Assay results published in patent publication US20060035966A1, “Irreversible selective androgen receptor modulators and methods of use thereof” (priority 2002, published 2006).
Read-outs that look alike come from different tables or passages of the source.

Assays:
[1] = tested on: PC-3 bone metastatic prostate cancer cell line; assay: Cytotoxicity, SRB assay, PC-3; assay type: cell-based, human; settings: Homo sapiens
Method: PPC-1, LNCaP, TSU, PC-3, and DU145 were grown in PRMI-1640 medium containing 2 mM L-glutamine supplemented with 10% fetal bovine serum (FBS). Cells were maintained in a 5% CO2/95% air humidified atomosphere at 37° C.
(§1) The SRB Assay was used to determine cell number during cytotoxocity experiments. The following protocol was used: • 1. Cells were detached with 0.25% trypsin. • 2. Experimental cultures were cultured in 96-well microtiter plates (200 uL growth medium per well; 1,000-200,000 cells per well). • 3. Cultures were fixed with 50 uL 50% TCA (4° C.). (see cell fixation protocol for details). • 4. Fixed cells were stained with 50 uL 0.4% (wt/vol) SRB in 1% acetic acid for 10 minutes. • 5. SRB was removed and the cultures were quickly* rinsed 5 times with 1% acetic acid to remove unbound dye.** • 6. Cultures were air-dried overnight until there is no visible moisture. • 7. The cellular protein-bound SRB was dissolved with 200 uL unbuffered Tris base (10 mM, pH 10.5) for 30 minutes on a rocking platform shaker. • 8. Absorbance was read at 540 nm. • * quickly performing rinsing process is to prevent desorption of protein-bound SRB • ** completely remove residual wash solution by sharply flicking plates over sink. Fixation of Cells Attached to the Plastic Substratum
(§2) The following protocol was used for fixing cells: • a. 50 uL of 50% TCA (4° C.) were gently layered on the top of growth medium in each well to make a final TCA concentration of 10%. • b. Cultures were incubated at 4° C. for 1 hour. • c. Cultures were washed 5 times with tap water to remove TCA, growth medium, low-molecular-weight metabolites, and serum protein. • d. Plates were air-dried until there was no visible moisture.

[2] = tested on: HT-29 colorectal adenocarcinoma cell line; assay: Cytotoxicity, SRB assay, HT-29; assay type: cell-based, human; settings: Homo sapiens
Method: as §1, with “Cells were detached with 0.25% trypsin. • 2.” left out, “The cellular protein-bound SRB was dissolved with 200 uL unbuffered Tris base (10 mM, pH 10.5) for 30 minutes on a rocking platform shaker. • 8.” left out
as §2

[3] = tested on: PPC-1 prostate cancer cell line; assay: Cytotoxicity, SRB assay, PPC-1; assay type: cell-based, human; settings: Homo sapiens
Method: as §1, with “Cells were detached with 0.25% trypsin. • 2.” left out, “The cellular protein-bound SRB was dissolved with 200 uL unbuffered Tris base (10 mM, pH 10.5) for 30 minutes on a rocking platform shaker. • 8.” left out
as §2

CV-1 control cell line = assay: Cytotoxicity, SRB assay, CV-1 control; assay type: cell-based, African green monkey; settings: Chlorocebus sabaeus
Method: as §1, §2

[4] = tested on: TCCSUP bladder cancer cell line; assay: Cytotoxicity, SRB assay, TCCSUP; assay type: cell-based, human; settings: Homo sapiens, TCC-SUP, read-out: IC50 TCCSUP
Method: as §1, with “Cells were detached with 0.25% trypsin. • 2.” left out, “The cellular protein-bound SRB was dissolved with 200 uL unbuffered Tris base (10 mM, pH 10.5) for 30 minutes on a rocking platform shaker. • 8.” left out
as §2

[5] = tested on: AR-expressing LNCaP prostate cancer cell line; assay: Cytotoxicity, SRB assay, LNCaP; assay type: cell-based, human; settings: Homo sapiens, LNCaP
Method: as §1, with “Cells were detached with 0.25% trypsin. • 2.” left out, “The cellular protein-bound SRB was dissolved with 200 uL unbuffered Tris base (10 mM, pH 10.5) for 30 minutes on a rocking platform shaker. • 8.” left out
as §2

[6] = tested on: TSU prostate cancer cell line; assay: Cytotoxicity, SRB assay, TSU; assay type: cell-based, human; settings: Homo sapiens, read-out: IC50 TSU
Method: as §1, with “Cells were detached with 0.25% trypsin. • 2.” left out, “The cellular protein-bound SRB was dissolved with 200 uL unbuffered Tris base (10 mM, pH 10.5) for 30 minutes on a rocking platform shaker. • 8.” left out
as §2

[7] = tested on: DU 145 prostate cancer cell line; assay: Cytotoxicity, SRB assay, DU 145; assay type: cell-based, human; settings: Homo sapiens
Method: as §1, with “Cells were detached with 0.25% trypsin. • 2.” left out, “The cellular protein-bound SRB was dissolved with 200 uL unbuffered Tris base (10 mM, pH 10.5) for 30 minutes on a rocking platform shaker. • 8.” left out
as §2

CV-1 cells = assay: Induction of apoptosis, CV-1; assay type: cell-based, African green monkey
Method: (§3) The ability of DJ 1-31, DJ 1-29, S-NTBA and Compound V to induce apoptosis in different prostate cancer cell lines (DU 145, PC-3, TSU, PPC-1 and LNCaP), in other cancer cell lines (TCCSUP, HT-29 and MCF-7) and in a control cell line (CV-1) was determined and the results are shown in Table 6.

MCF-7 cells = assay: Induction of apoptosis, MCF-7; assay type: cell-based
Method: as §3

DU 145 cells = assay: Induction of apoptosis, DU 145; assay type: cell-based, human
Method: as §3

HT-29 cells = assay: Induction of apoptosis, HT-29; assay type: cell-based, human
Method: as §3

LNCaP cells = assay: Induction of apoptosis, LNCaP; assay type: cell-based, human
Method: as §3

PC-3 cells = assay: Induction of apoptosis, PC-3; assay type: cell-based, human
Method: as §3

TCCSUP cells = assay: Induction of apoptosis, TCCSUP; assay type: cell-based, human
Method: as §3

PPC-1 cells = assay: Induction of apoptosis, PPC-1; assay type: cell-based, human
Method: as §3

TSU cells = assay: Induction of apoptosis, TSU; assay type: cell-based, human
Method: as §3

[8] = 24 h, read-out: IC50 LNCaP 24 hr treatment
[9] = 144 h, read-out: IC50 LNCaP 6 day treatment

Question: Which IC50 ([1]; 24 h, read-out: IC50 PC-3 24 hr treatment) does the source give for `C[C@](O)(CSc1ccc(NC(=O)CCl)cc1)C(=O)Nc1ccc(C#N)c(C(F)(F)F)c1` [R-CTF-T-CA-1] here?
Answer: Its IC50 is 5800 nM.

Question: And the IC50 ([1]; 96 h, read-out: IC50 PC-3 4 day treatment)?
Answer: The IC50 was 4300 nM.

Question: What about the IC50 ([1]; read-out: IC50 PC-3) of the same molecule?
Answer: The IC50 was 6100 ± 500 nM.

Question: And the IC50 ([2]; HT-29, read-out: IC50 HT-29)?
Answer: The IC50 was 6400 ± 500 nM.

Question: And the IC50 ([3]; PPC-1, read-out: IC50 PPC-1)?
Answer: Its IC50 is 2500 ± 100 nM.

Question: And the IC50 (CV-1 control cell line; 24 h, read-out: IC50 CV-1 24 hr treatment)?
Answer: The IC50 was 6200 ± 200 nM.

Question: And the IC50 (CV-1 control cell line; 96 h, read-out: IC50 CV-1 4 day treatment)?
Answer: The IC50 was 4200 nM.

Question: And the IC50 (CV-1 control cell line; read-out: IC50 CV-1 (Control))?
Answer: Its IC50 is 2700 ± 1000 nM.

Question: And the IC50 [4]?
Answer: The IC50 was 1800 ± 200 nM.

Question: And the IC50 [5, 8]?
Answer: The IC50 was 3500 nM.

Question: What about the IC50 [5, 9] of the same molecule?
Answer: Its IC50 is 1700 nM.

Question: And the IC50 ([5]; read-out: IC50 LNCaP)?
Answer: The IC50 was 1100 ± 200 nM.

Question: What about the IC50 [6] of the same molecule?
Answer: Its IC50 is 1500 ± 200 nM.

Question: What about the IC50 ([7]; DU-145, read-out: IC50 DU145) of the same molecule?
Answer: The IC50 was 2600 ± 100 nM.

Question: `C[C@@](O)(CBr)C(=O)Nc1ccc([N+](=O)[O-])c(C(F)(F)F)c1` [S-NTBA] was tested. Which “Enrichment factor CV-1” value (CV-1 cells) did it give?
Answer: The value was 0.393.

Question: And the “Enrichment factor MCF-7” value (MCF-7 cells)?
Answer: Its value is 2.012.

Question: And the “Enrichment factor DU 145” value (DU 145 cells)?
Answer: Its value is 1.929.

Question: And the “Enrichment factor HT-29” value (HT-29 cells)?
Answer: Its value is 1.538.

Question: And the IC50 ([1]; 96 h, 4 day treatment, Example 3, read-out: IC50 PC-3 4 day treatment)?
Answer: Its IC50 is 18000 nM.

Question: And the IC50 ([1]; 24 hr treatment, Example 3, read-out: IC50 PC-3 24 hr treatment)?
Answer: The IC50 was greater than 50000 nM.

Question: And the IC50 ([1]; Table 2A, Example 1, read-out: IC50 PC-3)?
Answer: The IC50 was 3100 ± 600 nM.

Question: What about the “Enrichment factor LNCaP” value (LNCaP cells) of the same molecule?
Answer: Its value is 0.660.

Question: And the IC50 ([2]; HT-29, Table 2B, Example 1, read-out: IC50 HT-29)?
Answer: The IC50 was 6300 ± 300 nM.

Question: And the IC50 ([3]; PPC-1, Table 2A, Example 1, read-out: IC50 PPC-1)?
Answer: Its IC50 is 2200 ± 200 nM.

Question: What about the “Enrichment factor PC-3” value (PC-3 cells) of the same molecule?
Answer: Its value is 0.750.

Question: And the IC50 (CV-1 control cell line; 24 h, drug incubation time 1 day, Example 4, read-out: IC50 CV-1)?
Answer: The IC50 was greater than 50000 nM.

Question: What about the IC50 (CV-1 control cell line; 96 h, 4 day treatment, Example 2, read-out: IC50 CV-1 4 day treatment) of the same molecule?
Answer: The IC50 was 4900 nM.

Question: What about the IC50 (CV-1 control cell line; 96 h, drug incubation time 4 day, Example 4, read-out: IC50 CV-1) of the same molecule?
Answer: The IC50 was 38600 ± 3600 nM.

Question: What about the IC50 (CV-1 control cell line; 24 hr treatment, Example 2, read-out: IC50 CV-1 24 hr treatment) of the same molecule?
Answer: The IC50 was 48200 ± 10900 nM.

Question: And the IC50 (CV-1 control cell line; Table 2B, Example 1, read-out: IC50 CV-1 (Control))?
Answer: The IC50 was 12700 ± 300 nM.

Question: And the “Enrichment factor TCCSUP” value (TCCSUP cells)?
Answer: The value was 0.118.

Question: And the IC50 ([4]; Table 2B, Example 1)?
Answer: The IC50 was 2400 ± 300 nM.

Question: What about the “Enrichment factor PPC-1” value (PPC-1 cells) of the same molecule?
Answer: Its value is 0.697.

Question: What about the IC50 [5, 8] of the same molecule?
Answer: The IC50 was 4400 nM.

Question: And the IC50 [5, 9]?
Answer: Its IC50 is 2100 nM.

Question: And the IC50 ([5]; read-out: IC50 LNCaP)?
Answer: The IC50 was 1400 ± 200 nM.

Question: And the IC50 ([6]; Table 2A, Example 1)?
Answer: Its IC50 is 3500 ± 200 nM.

Question: And the IC50 ([7]; DU-145, Table 2A, Example 1, read-out: IC50 DU145)?
Answer: The IC50 was 4700 ± 300 nM.

Question: What about the “Enrichment factor TSU” value (TSU cells) of the same molecule?
Answer: Its value is 0.705.

Question: `CC(=O)O[C@H]1C(=O)[C@@]2(C)[C@H]([C@H](OC(=O)c3ccccc3)[C@]3(O)C[C@H](OC(=O)[C@H](O)[C@@H](NC(=O)c4ccccc4)c4ccccc4)C(C)=C1C3(C)C)[C@]1(OC(C)=O)CO[C@@H]1C[C@@H]2O` [Taxol, reference compound] was tested. Which IC50 ([1]; Table 2A, Taxol in nM, read-out: IC50 PC-3) did it give?
Answer: The IC50 was 6.3 ± 0.6 nM.

Question: What about the IC50 ([2]; HT-29, read-out: IC50 HT-29) of the same molecule?
Answer: The IC50 was 6.6 ± 0.6 nM.

Question: What about the IC50 ([3]; PPC-1, read-out: IC50 PPC-1) of the same molecule?
Answer: Its IC50 is 2.7 ± 0.3 nM.

Question: And the IC50 [4]?
Answer: The IC50 was 4.3 ± 0.6 nM.

Question: And the IC50 ([5]; read-out: IC50 LNCaP)?
Answer: The IC50 was 1.9 ± 0.3 nM.

Question: And the IC50 [6]?
Answer: Its IC50 is 2.4 ± 0.8 nM.

Question: What about the IC50 ([7]; DU-145, read-out: IC50 DU145) of the same molecule?
Answer: The IC50 was 2.7 ± 0.3 nM.
